Reference: patent US20220389061A1, “IMMUNOMODULATORS” (priority 2019, published 2022)
Read-outs that look alike come from different tables or passages of the source. Starred links: 1 amine or outer side, 2 acyl side, 3 side chain; linkers in the order of their positions; H or OH if unused. Positions of bridges follow the written chain, without caps; N, C: chain ends. Non-standard residues stand in square brackets, D forms with d. Residues, ends and D or L forms follow the SMILES beside them. Groups on a side chain read outwards from the residue. *: point of attachment. Trp(1-CH2COOH) = N[C@@H](Cc1cn(CC(=O)O)c2ccccc12)C(=O)O; X88 = Cc1cc([N+](=O)[O-])ccc1NC(=S)*; NH(1-naphthyl) = c1ccc2c(N*)cccc2c1; Hyp = O=C(O)[C@@H]1C[C@@H](O)CN1; X19 = CCOC(=O)c1ccc(NC(=S)*)cc1; NMeNle = CCCC[C@H](NC)C(=O)O; X64 = COc1cc(OC)c(N*)cc1Cl; X6 = CCCCCCCOc1ccc(N*)cc1; NMeA = CN[C@@H](C)C(=O)O; Dab = NCC[C@H](N)C(=O)O; Dap = NC[C@H](N)C(=O)O; CO = O=C([*:1])[*:2]

Target: T1, PD-1/PD-L1 (Homo sapiens, UniProt Q9NZQ7)
T1 construct: TVMV protease site linker (C); made in house; host or cells: HEK293T cells
T1 sequence (Q9NZQ7 18-239): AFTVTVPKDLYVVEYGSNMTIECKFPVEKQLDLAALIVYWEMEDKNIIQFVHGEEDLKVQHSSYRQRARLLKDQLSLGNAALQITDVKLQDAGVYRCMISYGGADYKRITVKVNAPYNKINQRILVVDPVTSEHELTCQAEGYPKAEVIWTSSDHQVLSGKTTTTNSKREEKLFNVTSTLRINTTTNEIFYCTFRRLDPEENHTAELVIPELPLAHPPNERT
Assay: PD-1/PD-L1 Homogenous Time-Resolved Fluorescence (HTRF) binding assay
Outline: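 HTRF read-out using europium cryptate anti-Ig (1 nM) and APC anti-His (20 nM) on extracellular-domain fusion proteins in dPBS/0.1% BSA/0.05% Tween-20. Inhibitor first incubated 15 min with 10 nM PD-L1-His, followed by 20 nM PD-1-Ig for another 15 min.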

[1] = PD-L1-His 10 nM pre-incubated with inhibitor, PD-1-Ig 20 nM, read-out: HTRF IC50

Structure (SMILES)	IC50 [1] [nM]	IC50 [nM]
CCCCCCCOc1ccc(NC(=O)NC[C@@H]2NC(=O)[C@@H]3CCCN3C(=O)[C@H](CC(N)=O)NC(=O)[C@H](C)N(C)C(=O)[C@H](Cc3ccc(O)cc3)NC(=O)CSC[C@@H](C(=O)NCC(N)=O)NC(=O)[C@H](CC(C)C)NC(=O)[C@H](CCCC)N(C)C(=O)[C@H](CCCC)N(C)C(=O)[C@H](Cc3cn(CC(=O)O)c4ccccc34)NC(=O)[C@H](CCN)NC(=O)[C@H](Cc3c[nH]c4ccccc34)NC(=O)[C@@H]3C[C@@H](O)CN3C(=O)[C@H](CC(C)C)NC2=O)cc1 [Example 1099] ({CH2CO}-Y[NMeA]NP[Dap]([CO-X6])L[Hyp]W[Dab][Trp(1-CH2COOH)][NMeNle][NMeNle]LCG-NH2; thioether N-14)	2.6	
CCCC[C@H]1C(=O)N(C)[C@@H](CCCC)C(=O)N[C@@H](CC(C)C)C(=O)N[C@H](C(=O)NCC(N)=O)CSCC(=O)N[C@@H](Cc2ccc(O)cc2)C(=O)N(C)[C@@H](C)C(=O)N[C@@H](CC(N)=O)C(=O)N2CCC[C@H]2C(=O)N[C@@H](CNC(=O)Nc2cccc3ccccc23)C(=O)N[C@@H](CC(C)C)C(=O)N2C[C@H](O)C[C@H]2C(=O)N[C@@H](Cc2c[nH]c3ccccc23)C(=O)N[C@@H](CCNC(=O)Nc2cccc3ccccc23)C(=O)N[C@@H](Cc2cn(CC(=O)O)c3ccccc23)C(=O)N1C [Example 3005] ({CH2CO}-Y[NMeA]NP[Dap]([CO-NH(1-naphthyl)])L[Hyp]W[Dab]([CO-NH(1-naphthyl)])[Trp(1-CH2COOH)][NMeNle][NMeNle]LCG-NH2; thioether N-14)		3.2
CCCC[C@H]1C(=O)N(C)[C@@H](CCCC)C(=O)N[C@@H](CC(C)C)C(=O)N[C@H](C(=O)NCC(N)=O)CSCC(=O)N[C@@H](Cc2ccc(O)cc2)C(=O)N(C)[C@@H](C)C(=O)N[C@@H](CC(N)=O)C(=O)N2CCC[C@H]2C(=O)N[C@@H](CNC(=O)Nc2cc(Cl)c(OC)cc2OC)C(=O)N[C@@H](CC(C)C)C(=O)N2C[C@H](O)C[C@H]2C(=O)N[C@@H](Cc2c[nH]c3ccccc23)C(=O)N[C@@H](CCN)C(=O)N[C@@H](Cc2cn(CC(=O)O)c3ccccc23)C(=O)N1C [Example 1067] ({CH2CO}-Y[NMeA]NP[Dap]([CO-X64])L[Hyp]W[Dab][Trp(1-CH2COOH)][NMeNle][NMeNle]LCG-NH2; thioether N-14)	2.7	
CCCC[C@H]1C(=O)N(C)[C@@H](CCCC)C(=O)N[C@@H](CC(C)C)C(=O)N[C@H](C(=O)NCC(N)=O)CSCC(=O)N[C@@H](Cc2ccc(O)cc2)C(=O)N(C)[C@@H](C)C(=O)N[C@@H](CC(N)=O)C(=O)N2CCC[C@H]2C(=O)N[C@@H](CNC(=S)Nc2ccc(C(=O)OCC)cc2)C(=O)N[C@@H](CC(C)C)C(=O)N2C[C@H](O)C[C@H]2C(=O)N[C@@H](Cc2c[nH]c3ccccc23)C(=O)N[C@@H](CCN)C(=O)N[C@@H](Cc2cn(CC(=O)O)c3ccccc23)C(=O)N1C [Example 1042] ({CH2CO}-Y[NMeA]NP[Dap](X19)L[Hyp]W[Dab][Trp(1-CH2COOH)][NMeNle][NMeNle]LCG-NH2; thioether N-14)	4	
CCCC[C@H]1C(=O)N(C)[C@@H](CCCC)C(=O)N[C@@H](CC(C)C)C(=O)N[C@H](C(=O)NCC(N)=O)CSCC(=O)N[C@@H](Cc2ccc(O)cc2)C(=O)N(C)[C@@H](C)C(=O)N[C@@H](CC(N)=O)C(=O)N2CCC[C@H]2C(=O)N[C@@H](CNC(=S)Nc2ccc([N+](=O)[O-])cc2C)C(=O)N[C@@H](CC(C)C)C(=O)N2C[C@H](O)C[C@H]2C(=O)N[C@@H](Cc2c[nH]c3ccccc23)C(=O)N[C@@H](CCNC(=S)Nc2ccc([N+](=O)[O-])cc2C)C(=O)N[C@@H](Cc2cn(CC(=O)O)c3ccccc23)C(=O)N1C [Example 1125] ({CH2CO}-Y[NMeA]NP[Dap](X88)L[Hyp]W[Dab](X88)[Trp(1-CH2COOH)][NMeNle][NMeNle]LCG-NH2; thioether N-14)		6.7
